Test results as given in patent US20060025380A1, “Formulations for non-parenteral use including hydrophobic cyclodextrins” (deCODE Chemistry Inc, priority 2004, published 2006).

Experiment: Solubility of drug in aqueous cyclodextrin complexation media (dissolved drug by HPLC)
Assay type: physicochemical
Method: General procedure: Zero to 40% w/v of various cyclodextrins were dissolved in 0.25% (w/v) PVP polymer, 50 mM MgCl2 solutions with 50 to 150 mM of various amino acids, resulting in an aqueous complexation media. An excess amount of drug was added to the aqueous complexation media, with the suspension formed then sonicated for 60 minutes at 75° C. (some drugs can also be heated at 121° C. for 20 minutes in autoclave). After an equilibrium period, the drug suspensions were filtered and the amount of dissolved drug was determined by HPLC.
To provide further information as to a specific example, production of the third camptothecin formulation (with proline) listed below is described. 20% w/v of randomly methylated β-cyclodextrin was dissolved in 0.25% (w/v) CMC polymer, 50 mM MgCl2 solutions with 50 mM of Proline and 0.02M HCl (buffer). The drug concentration was 0.526±0.009 mg/ml.
To provide further information as to a specific example, production of the first trichlocarban formulation (with lysine) listed below is described. 20% w/v of randomly methlyated β-cyclodextrin was dissolved in 0.25% (w/v) PVP polymer, 50 mM MgCl2 solutions with 50 mM of L-Lysine hydrochloride. The drug concentration was 5.72±0.07 mg/ml.

Row | SMILES | Camptotechin (CPT) 20% RMβCD (50 mM Proline, 0.25% (w/v) CMC polymer, 50 mM MgCl2, 0.02M HCl) | Camptotechin (CPT) 20% RMβCD (50 mM Proline, 0.25% (w/v) CMC polymer, 50 mM MgCl2, 0.02M HCl, listed as camptothecin) | Camptotechin (CPT) 20% RMβCD (Cysteine) | Camptotechin (CPT) 20% RMβCD (Lysine) | Camptotechin (CPT) 20% RMβCD (No amino acid) | Camptotechin (CPT) 20% RMβCD (Tryptophan) | Camptotechin (CPT) 40% HPβCD (40% HPβCD (first column so headed, c2), Lysine) | Camptotechin (CPT) 40% HPβCD (40% HPβCD (second column so headed, c3), Lysine) | Trichlocarban (TCC) solubility, CD + poly | Trichlocarban (TCC) solubility, CD no AA | solubility of TCC with adipic acid | solubility of TCC with poly-lysine
1 | CC[C@@]1(O)C(=O)OCc2c1cc1n(c2=O)Cc2cc3ccccc3nc2-1 [Camptotechin, camptothecin] | 0.526 ± 0.009 mg/mL | 0.526 ± 0.009 mg/mL | 0.334 ± 0.025 mg/mL | 0.285 ± 0.010 mg/mL | 0.228 ± 0.009 mg/mL | 0.375 ± 0.002 mg/mL | 0.493 ± 0.015 mg/mL | 0.439 ± 0.022 mg/mL | – | – | – | –
2 | O=C(Nc1ccc(Cl)cc1)Nc1ccc(Cl)c(Cl)c1 [Trichlocarban, trichlocarban] | – | – | – | – | – | – | – | – | 2.30 ± 0.24 mg/mL | 2.05 ± 0.15 mg/mL | 5.19 ± 0.21 mg/mL | 4.81 ± 0.21 mg/mL
